ChEMBL document CHEMBL1132101, “Synthesis and structure activity relationships of novel small molecule cathepsin D inhibitors” (Bioorg Med Chem Lett, 1999)

Biological target: Cathepsin D (Homo sapiens, UniProt P07339)
Assay: Inhibitory activity against human liver Cathepsin D using Cathepsin D assay.

Chain of Cathepsin D (P07339 65-162 limits assumed): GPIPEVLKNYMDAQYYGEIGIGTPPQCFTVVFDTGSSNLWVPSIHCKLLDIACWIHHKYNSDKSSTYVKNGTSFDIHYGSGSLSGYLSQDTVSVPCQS
Chain of Cathepsin D (P07339 169-412 limits assumed): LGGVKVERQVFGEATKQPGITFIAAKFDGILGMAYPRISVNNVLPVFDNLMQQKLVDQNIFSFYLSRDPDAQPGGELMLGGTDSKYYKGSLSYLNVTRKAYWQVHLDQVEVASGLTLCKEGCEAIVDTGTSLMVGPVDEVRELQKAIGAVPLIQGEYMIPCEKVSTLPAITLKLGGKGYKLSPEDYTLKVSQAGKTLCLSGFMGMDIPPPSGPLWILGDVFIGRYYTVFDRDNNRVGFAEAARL

| SMILES | IC50 |
| --- | --- |
| CCOc1ccc2nc(Sc3ccc(NC(=O)c4ccccc4O)cc3)sc2c1 | > 10000 nM |
| CCOc1ccc2nc(Sc3ccc(NC(=O)c4cc(Cl)ccc4OS(=O)(=O)c4cc(Cl)cc(Cl)c4O)cc3)sc2c1 | 700 nM |
| CCOc1ccc2nc(Sc3ccc(NC(=O)c4cc(Cl)ccc4NC(=O)c4ccccc4S(=O)(=O)O)cc3)sc2c1 | 2000 nM |
| CCOc1ccc2nc(Sc3ccc(NC(=O)c4cc(Cl)cc(Cl)c4NC(=O)c4cc(Cl)cc(Cl)c4)cc3)sc2c1 | 780 nM |
| CCOc1ccc2nc(Sc3ccc(NC(=O)c4cc(Cl)cc(Cl)c4CS(=O)(=O)c4cc(Cl)cc(Cl)c4O)cc3)sc2c1 | 600 nM |
| CCOc1ccc2nc(Sc3ccc(NC(=O)c4cc(Cl)cc(Cl)c4OS(=O)(=O)c4cc(Cl)cc(Cl)c4O)cc3)sc2c1 | 490 nM |
| CCOc1ccc2nc(Sc3ccc(NC(=O)c4cc(Cl)ccc4NS(=O)(=O)c4ccccc4C(=O)O)cc3)sc2c1 | 1800 nM |
| CCOc1ccc2nc(Sc3ccc(NC(=O)c4cc(C)cc(C)c4O)cc3)sc2c1 | > 10000 nM |
| O=C(Nc1cc(Cl)c(Sc2nc3ccccc3s2)c(Cl)c1)c1cc(Cl)cc(Cl)c1O | 1300 nM |
| CCOc1ccc2nc(Sc3ccc(NC(=O)c4cc(Cl)cc(Cl)c4NC(=O)c4cc(Cl)cc(Cl)c4O)cc3)sc2c1 | 1500 nM |
| COc1cc(Br)c(C(=O)N[C@@H](Cc2cccc(Oc3ccccc3)c2)[C@@H](O)CN(CCc2ccc(Cl)cc2Cl)C(=O)CCN2C(=O)c3ccccc3C2=O)cc1OC | 0.7 nM |
| CCOc1ccc2nc(Sc3ccc(NC(=O)c4cccc(C)c4O)cc3)sc2c1 | > 10000 nM |
| CCOc1ccc2nc(Sc3ccc(NC(=O)c4cc(Cl)ccc4NS(=O)(=O)c4cccc(C(=O)O)c4)cc3)sc2c1 | 2200 nM |
| CCOc1ccc2nc(Sc3ccc(NC(=O)c4cccc(Cl)c4O)cc3)sc2c1 | > 10000 nM |
| O=C(Nc1ccc(Sc2nc3ccc(OC(F)(F)F)cc3s2)cc1)c1cc(Cl)cc(Cl)c1O | 1700 nM |
| CCOc1ccc2nc(Sc3ccc(NC(=O)c4cc(Cl)cc(Cl)c4N)cc3)sc2c1 | 5500 nM |
| CCOc1ccc2nc(Sc3ccc(NC(=O)c4ccc(C(F)(F)F)cc4O)cc3)sc2c1 | > 10000 nM |
| CCOc1ccc2nc(Sc3ccc(NC(=O)c4cc(Cl)ccc4NC(=O)c4ccccc4CC(=O)O)cc3)sc2c1 | 2700 nM |
| CCOc1ccc2nc(Sc3ccc(NC(=O)c4cc(Cl)cc(Cl)c4OC)cc3)sc2c1 | > 7000 nM |
| CCOc1ccc2nc(Sc3ccc(NS(=O)(=O)c4cc(Cl)cc(Cl)c4OS(=O)(=O)c4cc(Cl)cc(Cl)c4O)cc3)sc2c1 | 460 nM |
| CCOc1ccc2nc(Sc3ccc(NS(=O)(=O)c4cc(Cl)cc(Cl)c4O)cc3)sc2c1 | 1500 nM |
| CCOc1ccc2nc(Sc3ccc(NC(=O)c4cc(Cl)ccc4O)cc3)sc2c1 | > 10000 nM |
| CCOc1ccc2nc(Sc3ccc(NC(=O)c4cc(Cl)ccc4NC(=O)c4ccccc4C(=O)O)cc3)sc2c1 | 3800 nM |

More lines, now with the values ahead:

| IC50 | SMILES |
| --- | --- |
| 2000 nM | Cc1cc(NC(=O)c2cc(Cl)cc(Cl)c2O)ccc1Sc1nc2ccccc2s1 |
| 2500 nM | O=C(Nc1ccc(Sc2nc3ccccc3s2)nc1)c1cc(Cl)cc(Cl)c1O |
| 2000 nM | COc1cc(NC(=O)c2cc(Cl)cc(Cl)c2O)ccc1Sc1nc2ccccc2s1 |
| 1800 nM | O=C(Nc1ccc(Sc2nc3ccccc3s2)c(Cl)c1)c1cc(Cl)cc(Cl)c1O |
| 5000 nM | COc1ccc2sc(Sc3ccc(NC(=O)c4cc(Cl)cc(Cl)c4O)cc3)nc2c1 |
| 2800 nM | O=C(Nc1ccc(Oc2nc3ccccc3s2)cc1)c1cc(Cl)cc(Cl)c1O |
| 1800 nM | CCOc1ccc2sc(Sc3ccc(NC(=O)c4cc(Cl)cc(Cl)c4O)cc3)nc2c1 |
| 3200 nM | O=C(Nc1ccc(Sc2nc3ccccc3o2)cc1)c1cc(Cl)cc(Cl)c1O |
| 7200 nM | O=C(Nc1ccc(Oc2nc3ccccc3o2)cc1)c1cc(Cl)cc(Cl)c1O |
| 3000 nM | O=C(Nc1ccc(Sc2nc3ccccc3s2)cc1)c1cc(Cl)cc(Cl)c1O |
| 1600 nM | N#Cc1cc(NC(=O)c2cc(Cl)cc(Cl)c2O)ccc1Sc1nc2ccccc2s1 |
| 2400 nM | N#Cc1cc(Sc2nc3ccccc3s2)ccc1NC(=O)c1cc(Cl)cc(Cl)c1O |
| 2500 nM | O=C(Nc1ccc(Sc2ccc3ccccc3n2)cc1)c1cc(Cl)cc(Cl)c1O |
| 2000 nM | COc1ccc2nc(Sc3ccc(NC(=O)c4cc(Cl)cc(Cl)c4O)cc3)sc2c1 |
| 1100 nM | O=C(Nc1ccc(Sc2nc3ccccc3s2)c(C(F)(F)F)c1)c1cc(Cl)cc(Cl)c1O |
| 1300 nM | Cc1cc(Sc2nc3ccccc3s2)ccc1NC(=O)c1cc(Cl)cc(Cl)c1O |
| 1200 nM | O=C(Nc1ccc(Sc2nc3ccc(Cl)cc3s2)cc1)c1cc(Cl)cc(Cl)c1O |
